Test results taken from patent US5977133A, “Pyridone antibiotic with improved safety profile” (priority 1998, dated 1999).
≈ marks a conversion by molar mass, not a printed value.

Columns and labels:
Format in all cases: cell-based
Shigella spp. = assay: microbe, parasite or virus in culture; details: read-out: MIC Range
H. pylori = assay: In vitro MIC, agar dilution; details: Helicobacter pylori
S. pneumoniae (PenR) = assay: In vitro MIC, agar dilution; details: Streptococcus pneumoniae
E. faecalis (VanS) = assay: In vitro MIC, agar dilution; details: Enterococcus faecalis
S. aureus (CiproR) = assay: In vitro MIC, agar dilution; details: Staphylococcus aureus
M. avium = assay: In vitro MIC, agar dilution; details: Mycobacterium avium
S. aureus (CiproS) = assay: In vitro MIC, agar dilution; details: Staphylococcus aureus
S. epidermidis (CiproR) = assay: In vitro MIC, agar dilution; details: Staphylococcus epidermidis, S. epidermidis (CiproR), 11 isolates
C. freundii = assay: In vitro MIC, agar dilution; details: Citrobacter freundii
C. perfringens = assay: microbe, parasite or virus in culture; details: Clostridium perfringens
E. coli = assay: In vitro MIC, agar dilution; details: Escherichia coli, 25 isolates
Procedure, shortened: (§1)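 MIC, the lowest compound level without growth versus a drug-free BHI control plate, with faint haze or scattered colonies scored as no growth. About 10^4 CFU was replicator-spotted from 1:100 dilutions, or 1:10 for slow-growing strains, and plates were read after ~20–24 h at 35–37 °C.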

Salmonella spp. = assay: In vitro MIC, agar dilution; details: 23 isolates
Procedure, shortened: as §1

E. faecium (CiproS) = assay: In vitro MIC, agar dilution; details: Enterococcus faecium, E. faecium (CiproS), 16 isolates
P. aeruginosa (CiproR) = assay: In vitro MIC, agar dilution; details: Pseudomonas aeruginosa
Providencia spp. = assay: In vitro MIC, agar dilution; details: Providencia spp., 28 isolates
P. mirabilis = assay: In vitro MIC, agar dilution; details: Proteus mirabilis
S. pneumoniae (CiproR) = assay: In vitro MIC, agar dilution; details: Streptococcus pneumoniae, read-out: MIC Range
H. influenzae = assay: In vitro MIC, agar dilution; details: Haemophilus influenzae
B. fragilis = assay: In vitro MIC, agar dilution; details: Bacteroides fragilis
C. difficile = assay: In vitro MIC, agar dilution; details: Clostridioides difficile
S. pyogenes = assay: In vitro MIC, agar dilution; details: Streptococcus pyogenes
M. pneumoniae = assay: In vitro MIC, agar dilution; details: Mycoplasmoides pneumoniae, read-out: MIC Range
E. faecium (VanS) = assay: In vitro MIC, agar dilution; details: Enterococcus faecium, E. faecium (VanS), 11 isolates
Klebsiella spp. = assay: In vitro MIC, agar dilution
S. pneumoniae (PenS) = assay: In vitro MIC, agar dilution; details: Streptococcus pneumoniae
Legionella spp. = assay: microbe, parasite or virus in culture; details: Legionella
Enterococcus spp. (VanR) = assay: In vitro MIC, agar dilution; details: Enterococcus spp. (VanR), 21 isolates
M. catarrhalis = assay: In vitro MIC, agar dilution; details: Moraxella catarrhalis
S. epidermidis (CiproS) = assay: In vitro MIC, agar dilution; details: Staphylococcus epidermidis
E. faecium (CiproR) = assay: In vitro MIC, agar dilution; details: Enterococcus faecium; E. faecium (CiproR), 2 isolates; read-out: MIC Range

Work on `C[C@@H]1CN(c2c(F)c(N)c3c(=O)c(C(=O)O)cn(C4CC4)c3c2F)C[C@H](C)N1` [Sparfloxacin, sparfloxacin] yielded an MIC (Shigella spp.) of 0.004 to 0.015 µg/mL (≈ 0.0102 to 0.0382 µM), an MIC90 (H. pylori) of 0.25 µg/mL (≈ 0.637 µM) and an MIC (H. pylori; read-out: MIC Range) of 0.06 to 0.25 µg/mL (≈ 0.153 to 0.637 µM). It also gave an MIC50 (H. pylori; H. pylori, 17 isolates, read-out: MIC50) of 0.12 µg/mL (≈ 0.306 µM), an MIC90 (S. pneumoniae (PenR)) of 0.25 µg/mL (≈ 0.637 µM) and an MIC (S. pneumoniae (PenR); read-out: MIC Range) of 0.12 to 0.25 µg/mL (≈ 0.306 to 0.637 µM). The MIC50 (S. pneumoniae (PenR); S. pneumoniae (PenR), 25 isolates, read-out: MIC50) was 0.25 µg/mL (≈ 0.637 µM), the MIC90 (E. faecalis (VanS)) was 0.5 µg/mL (≈ 1.27 µM) and the MIC (E. faecalis (VanS); read-out: MIC Range) was 0.25 to 1 µg/mL (≈ 0.637 to 2.55 µM). The MIC50 (E. faecalis (VanS); E. faecalis (VanS), 17 isolates, read-out: MIC50) was 0.5 µg/mL (≈ 1.27 µM), the MIC (S. aureus (CiproR); read-out: MIC Range) was 0.12 to 16 µg/mL (≈ 0.306 to 40.8 µM) and the MIC50 (S. aureus (CiproR); S. aureus (CiproR), 25 isolates, read-out: MIC50) was 4 µg/mL (≈ 10.2 µM). For the same molecule, the MIC90 (S. aureus (CiproR); S. aureus (CiproR), 25 isolates, read-out: MIC90) was 8 µg/mL (≈ 20.4 µM), the MIC (M. avium; read-out: MIC Range) was 0.5 to 16 µg/mL (≈ 1.27 to 40.8 µM) and the MIC50 (M. avium; M. avium, 20 isolates, read-out: MIC50) was 2 µg/mL (≈ 5.1 µM). For the same molecule, the MIC90 (M. avium; M. avium, 20 isolates, read-out: MIC90) was 2 µg/mL (≈ 5.1 µM), the MIC50 (S. aureus (CiproS)) was 0.03 µg/mL (≈ 0.0765 µM) and the MIC90 (S. aureus (CiproS)) was 0.06 µg/mL (≈ 0.153 µM). For the same molecule, the MIC (S. aureus (CiproS); S. aureus (CiproS), 21 isolates, read-out: MIC Range) was 0.03 to 0.06 µg/mL (≈ 0.0765 to 0.153 µM), the MIC50 (S. epidermidis (CiproR); read-out: MIC50) was 4 µg/mL (≈ 10.2 µM) and the MIC90 (S. epidermidis (CiproR); read-out: MIC90) was 8 µg/mL (≈ 20.4 µM). It also gave an MIC50 (C. freundii) of 0.03 µg/mL (≈ 0.0765 µM), an MIC90 (C. freundii) of 0.5 µg/mL (≈ 1.27 µM) and an MIC (C. freundii; C. freundii, 20 isolates, read-out: MIC Range) of 0.015 to 1 µg/mL (≈ 0.0382 to 2.55 µM). It also gave an MIC50 (C. perfringens) of 0.25 µg/mL (≈ 0.637 µM), an MIC90 (C. perfringens; C. perfringens, 13 isolates) of 0.5 µg/mL (≈ 1.27 µM) and an MIC (C. perfringens; read-out: MIC Range) of 0.06 to 0.5 µg/mL (≈ 0.153 to 1.27 µM). For the same molecule, the MIC (E. coli) was 0.004 to 0.03 µg/mL (≈ 0.0102 to 0.0765 µM), the MIC50 (E. coli; read-out: MIC50) was 0.015 µg/mL (≈ 0.0382 µM) and the MIC90 (E. coli; read-out: MIC90) was 0.03 µg/mL (≈ 0.0765 µM). The MIC (Salmonella spp.) was 0.004 to 0.5 µg/mL (≈ 0.0102 to 1.27 µM), the MIC50 (Salmonella spp.; read-out: MIC50) was 0.03 µg/mL (≈ 0.0765 µM) and the MIC90 (Salmonella spp.; read-out: MIC90) was 0.06 µg/mL (≈ 0.153 µM). It also gave an MIC50 (E. faecium (CiproS); read-out: MIC50) of 0.5 µg/mL (≈ 1.27 µM), an MIC90 (E. faecium (CiproS); read-out: MIC90) of 1 µg/mL (≈ 2.55 µM) and an MIC (E. faecium (CiproS); read-out: MIC Range) of 0.5 to 32 µg/mL (≈ 1.27 to 81.5 µM). It also gave an MIC90 (P. aeruginosa (CiproR)) of 128 µg/mL (≈ 326 µM), an MIC50 (P. aeruginosa (CiproR); P. aeruginosa (CiproR), 20 isolates, read-out: MIC50) of 64 µg/mL (≈ 163 µM) and an MIC50 (Providencia spp.; read-out: MIC50) of 0.12 µg/mL (≈ 0.306 µM). It also gave an MIC90 (Providencia spp.; read-out: MIC90) of 1 µg/mL (≈ 2.55 µM), an MIC (Providencia spp.; read-out: MIC Range) of 0.015 to 2 µg/mL (≈ 0.0382 to 5.1 µM) and an MIC90 (P. mirabilis) of 0.25 µg/mL (≈ 0.637 µM). The MIC (P. mirabilis; read-out: MIC Range) was 0.12 to 0.5 µg/mL (≈ 0.306 to 1.27 µM), the MIC50 (P. mirabilis; P. mirabilis, 20 isolates, read-out: MIC50) was 0.25 µg/mL (≈ 0.637 µM) and the MIC (S. pneumoniae (CiproR)) was 0.25 to 0.5 µg/mL (≈ 0.637 to 1.27 µM). It also gave an MIC90 (H. influenzae) of 0.015 µg/mL (≈ 0.0382 µM), an MIC50 (H. influenzae; H. influenzae, 18 isolates, read-out: MIC50) of 0.008 µg/mL (≈ 0.0204 µM) and an MIC (H. influenzae; H. influenzae, 18 isolates, read-out: MIC Range) of 0.004 to 0.03 µg/mL (≈ 0.0102 to 0.0765 µM). For the same molecule, the MIC (B. fragilis; read-out: MIC Range) was 0.5 to 2 µg/mL (≈ 1.27 to 5.1 µM), the MIC50 (B. fragilis; B. fragilis, 18 isolates, read-out: MIC50) was 1 µg/mL (≈ 2.55 µM) and the MIC90 (B. fragilis; B. fragilis, 18 isolates, read-out: MIC90) was 2 µg/mL (≈ 5.1 µM). The MIC (C. difficile; read-out: MIC Range) was 2 to 4 µg/mL (≈ 5.1 to 10.2 µM), the MIC50 (C. difficile; C. difficile, 10 isolates, read-out: MIC50) was 4 µg/mL (≈ 10.2 µM) and the MIC90 (C. difficile; C. difficile, 10 isolates, read-out: MIC90) was 4 µg/mL (≈ 10.2 µM). The MIC90 (S. pyogenes) was 0.5 µg/mL (≈ 1.27 µM), the MIC (S. pyogenes; read-out: MIC Range) was 0.12 to 1 µg/mL (≈ 0.306 to 2.55 µM) and the MIC50 (S. pyogenes; S. pyogenes, 21 isolates, read-out: MIC50) was 0.25 µg/mL (≈ 0.637 µM). For the same molecule, the MIC (M. pneumoniae) was 0.06 to 0.12 µg/mL (≈ 0.153 to 0.306 µM), the MIC50 (E. faecium (VanS); read-out: MIC50) was 1 µg/mL (≈ 2.55 µM) and the MIC90 (E. faecium (VanS); read-out: MIC90) was 2 µg/mL (≈ 5.1 µM). For the same molecule, the MIC (E. faecium (VanS); read-out: MIC Range) was 1 to 4 µg/mL (≈ 2.55 to 10.2 µM), the MIC90 (Klebsiella spp.; Klebsiella) was 0.06 µg/mL (≈ 0.153 µM) and the MIC50 (Klebsiella spp.; Klebsiella spp., 29 isolates, read-out: MIC50) was 0.06 µg/mL (≈ 0.153 µM). It also gave an MIC (Klebsiella spp.; Klebsiella spp., 29 isolates, read-out: MIC Range) of 0.004 to 0.5 µg/mL (≈ 0.0102 to 1.27 µM), an MIC90 (S. pneumoniae (PenS)) of 0.5 µg/mL (≈ 1.27 µM) and an MIC (S. pneumoniae (PenS); read-out: MIC Range) of 0.12 to 0.5 µg/mL (≈ 0.306 to 1.27 µM). The MIC50 (S. pneumoniae (PenS); S. pneumoniae (PenS), 20 isolates, read-out: MIC50) was 0.25 µg/mL (≈ 0.637 µM), the MIC50 (Legionella spp.) was 0.06 µg/mL (≈ 0.153 µM) and the MIC90 (Legionella spp.) was 0.25 µg/mL (≈ 0.637 µM). The MIC (Legionella spp.; read-out: MIC Range) was 0.03 to 0.25 µg/mL (≈ 0.0765 to 0.637 µM), the MIC50 (Enterococcus spp. (VanR); read-out: MIC50) was 0.5 µg/mL (≈ 1.27 µM) and the MIC90 (Enterococcus spp. (VanR); read-out: MIC90) was 8 µg/mL (≈ 20.4 µM). The MIC (Enterococcus spp. (VanR); read-out: MIC Range) was 0.25 to 32 µg/mL (≈ 0.637 to 81.5 µM), the MIC50 (M. catarrhalis) was 0.03 µg/mL (≈ 0.0765 µM) and the MIC90 (M. catarrhalis) was 0.06 µg/mL (≈ 0.153 µM). It also gave an MIC (M. catarrhalis; M. catarrhalis, 18 isolates, read-out: MIC Range) of 0.015 to 0.25 µg/mL (≈ 0.0382 to 0.637 µM), an MIC90 (S. epidermidis (CiproS)) of 0.12 µg/mL (≈ 0.306 µM) and an MIC50 (S. epidermidis (CiproS); S. epidermidis (CiproS), 23 isolates, read-out: MIC50) of 0.06 µg/mL (≈ 0.153 µM). It also gave an MIC (S. epidermidis (CiproS); S. epidermidis (CiproS), 23 isolates, read-out: MIC Range) of 0.03 to 0.12 µg/mL (≈ 0.0765 to 0.306 µM) and an MIC (E. faecium (CiproR)) of 8 to 32 µg/mL (≈ 20.4 to 81.5 µM).
